± gives the uncertainty stated by the source.
Experiment: xn = mol fraction of the nth substance listed

NC=O + CC(O)CO
viscosity [mPa·s], 101 kPa
Settings	293.15 K	298.15 K	303.15 K	308.15 K	313.15 K	318.15 K
x1 = 0.0567	41.37 ± 0.22	33.51 ± 0.18	27.96 ± 0.15	23 ± 0.13	18.07 ± 0.1	14.26 ± 0.081
x1 = 0.1191	36.96 ± 0.2	29.71 ± 0.16	24.4 ± 0.13	19.81 ± 0.11	15.28 ± 0.086	11.93 ± 0.068
x1 = 0.1736	–	29.68 ± 0.91	–	–	–	–
x1 = 0.1881	33.2 ± 0.18	26.49 ± 0.14	21.59 ± 0.12	17.16 ± 0.094	12.95 ± 0.073	9.801 ± 0.057
x1 = 0.2649	29.41 ± 0.15	23.3 ± 0.12	18.92 ± 0.1	14.86 ± 0.082	10.98 ± 0.062	8.107 ± 0.048
x1 = 0.3159	–	22.75 ± 0.68	–	–	–	–
x1 = 0.3409	25.85 ± 0.13	20.41 ± 0.11	16.5 ± 0.088	12.9 ± 0.071	9.425 ± 0.054	6.875 ± 0.041
x1 = 0.4166	–	18.75 ± 0.55	–	–	–	–
x1 = 0.4478	21.21 ± 0.11	16.73 ± 0.088	13.52 ± 0.072	10.58 ± 0.058	7.704 ± 0.045	5.602 ± 0.034
x1 = 0.5518	–	14.59 ± 0.41	–	–	–	–
x1 = 0.5578	16.8 ± 0.087	13.31 ± 0.07	10.81 ± 0.058	8.506 ± 0.048	6.3 ± 0.037	4.653 ± 0.029
x1 = 0.6017	–	13.69 ± 0.39	–	–	–	–
x1 = 0.654	–	12.31 ± 0.35	–	–	–	–
x1 = 0.6838	12.2 ± 0.064	9.902 ± 0.053	8.159 ± 0.045	6.542 ± 0.037	5.072 ± 0.031	3.959 ± 0.024
x1 = 0.7347	–	10.26 ± 0.28	–	–	–	–
x1 = 0.8117	–	8.254 ± 0.23	–	–	–	–
x1 = 0.8295	7.586 ± 0.042	6.35 ± 0.036	5.433 ± 0.032	4.647 ± 0.028	3.789 ± 0.023	3.144 ± 0.019
x1 = 0.8808	–	6.511 ± 0.18	–	–	–	–
x1 = 0.8818	6.101 ± 0.035	5.206 ± 0.03	4.59 ± 0.027	4.003 ± 0.024	3.386 ± 0.02	2.902 ± 0.018
x1 = 0.9392	4.756 ± 0.028	4.189 ± 0.025	3.805 ± 0.023	3.401 ± 0.02	2.96 ± 0.018	2.601 ± 0.016
x1 = 0.9434	–	4.916 ± 0.13	–	–	–	–

CCCC(O)CC (configuration not stated) + CCO
298.15 K, 101.33 kPa
Settings	viscosity [mPa·s]
x2 = 0.1028	4.236 ± 0.034
x2 = 0.2116	3.975 ± 0.032
x2 = 0.3124	3.658 ± 0.029
x2 = 0.4135	3.218 ± 0.026
x2 = 0.5018	2.88 ± 0.023
x2 = 0.6027	2.459 ± 0.019
x2 = 0.6987	2.054 ± 0.016
x2 = 0.7994	1.673 ± 0.013
x2 = 0.9044	1.363 ± 0.011

CN1CCC[C@H]1c1cccnc1 + OCCCO
100 kPa
Settings	viscosity [mPa·s]
293.15 K, x1 = 0.5	33.15 ± 0.72
293.15 K, x1 = 0.6004	22.75 ± 0.49
293.15 K, x1 = 0.8	9.805 ± 0.21
298.15 K, x1 = 0.8	8.105 ± 0.17
303.15 K, x1 = 0.6004	13.95 ± 0.3
308.15 K, x1 = 0.7	7.885 ± 0.17
313.15 K, x1 = 0.9	3.625 ± 0.076
323.15 K, x1 = 0.3	13.05 ± 0.29

OCCCl + Nc1cccc(Cl)c1
100 kPa
Settings	viscosity [mPa·s]
303.15 K, x2 = 0.7938	3.925 ± 1
308.15 K, x2 = 0.3622	2.855 ± 1
313.15 K, x2 = 0.0844	1.995
313.15 K, x2 = 0.5814	2.795 ± 1

OCCCl + OCCO
293.15 K, 101.33 kPa
Settings	viscosity [mPa·s]
x2 = 0.1328	4.422 ± 0.038
x2 = 0.2605	5.484 ± 0.044
x2 = 0.3003	5.879 ± 0.047
x2 = 0.3636	6.593 ± 0.051
x2 = 0.4644	7.922 ± 0.058
x2 = 0.5437	9.223 ± 0.066
x2 = 0.6211	10.66 ± 0.07
x2 = 0.6983	12.26 ± 0.082
x2 = 0.7424	13.29 ± 0.087
x2 = 0.8141	15.21 ± 0.098
x2 = 0.8422	15.98 ± 0.1
x2 = 0.9168	18.26 ± 0.11

CCCCCCCCCCC + CCCCC
viscosity [mPa·s]
Settings	293.15 K	298.15 K	303.15 K	308.15 K	313.15 K	318.15 K	323.15 K
100 kPa, x2 = 0.1034	1.033 ± 0.013	0.957 ± 0.012	0.887 ± 0.011	0.825 ± 0.01	0.77 ± 0.01	0.721 ± 0.009	0.677 ± 0.008
100 kPa, x2 = 0.2018	0.906 ± 0.011	0.842 ± 0.011	0.784 ± 0.01	0.732 ± 0.009	0.686 ± 0.009	0.645 ± 0.008	0.607 ± 0.008
100 kPa, x2 = 0.3079	0.774 ± 0.01	0.723 ± 0.009	0.676 ± 0.008	0.634 ± 0.008	0.597 ± 0.007	0.563 ± 0.007	0.531 ± 0.007
100 kPa, x2 = 0.3996	0.689 ± 0.009	0.645 ± 0.008	0.606 ± 0.008	0.571 ± 0.007	0.538 ± 0.007	0.509 ± 0.006	0.483 ± 0.006
100 kPa, x2 = 0.5027	0.594 ± 0.007	0.556 ± 0.007	0.523 ± 0.007	0.494 ± 0.006	0.468 ± 0.006	0.444 ± 0.006	0.422 ± 0.005
100 kPa, x2 = 0.6106	0.488 ± 0.006	0.461 ± 0.006	0.437 ± 0.006	0.415 ± 0.005	0.395 ± 0.005	0.376 ± 0.005	0.366 ± 0.005
100 kPa, x2 = 0.702	0.427 ± 0.005	0.405 ± 0.005	0.386 ± 0.005	0.368 ± 0.005	0.358 ± 0.005	–	–
100 kPa, x2 = 0.8003	0.359 ± 0.005	0.341 ± 0.004	0.324 ± 0.004	0.308 ± 0.004	–	–	–
100 kPa, x2 = 0.8988	0.287 ± 0.004	0.273 ± 0.004	0.259 ± 0.003	–	–	–	–
101.33 kPa, x2 = 0.0962	–	0.9653 ± 0.012	–	–	–	–	–
101.33 kPa, x2 = 0.1826	–	0.8798 ± 0.011	–	–	–	–	–
101.33 kPa, x2 = 0.274	–	0.7841 ± 0.01	–	–	–	–	–
101.33 kPa, x2 = 0.368	–	0.6944 ± 0.0093	–	–	–	–	–
101.33 kPa, x2 = 0.4834	–	0.5825 ± 0.0081	–	–	–	–	–
101.33 kPa, x2 = 0.5738	–	0.5061 ± 0.0073	–	–	–	–	–
101.33 kPa, x2 = 0.6599	–	0.4333 ± 0.0065	–	–	–	–	–
101.33 kPa, x2 = 0.7461	–	0.3731 ± 0.0058	–	–	–	–	–
101.33 kPa, x2 = 0.8967	–	0.2805 ± 0.0048	–	–	–	–	–

NC=O + c1ccncc1
298.15 K, 101 kPa
Settings	viscosity [mPa·s]
x1 = 0.129	1.064 ± 0.21
x1 = 0.1798	1.16 ± 0.23
x1 = 0.2662	1.365 ± 0.27

CN1CCC[C@H]1c1cccnc1 + CCCCO
100 kPa
Settings	viscosity [mPa·s]
298.15 K, x1 = 0.3931	3.155 ± 0.065
303.15 K, x1 = 0.7	3.205 ± 0.067
313.15 K, x1 = 0.1	1.885 ± 0.039

NC=O + C1COCCO1
101 kPa
Settings	viscosity [mPa·s]
298.15 K, x1 = 0.2556	1.492 ± 0.019
298.15 K, x1 = 0.433	1.849 ± 0.023
298.15 K, x1 = 0.5602	2.219 ± 0.027
298.15 K, x1 = 0.6657	2.564 ± 0.03
298.15 K, x1 = 0.7461	2.863 ± 0.034
298.15 K, x1 = 0.8157	3.094 ± 0.036
298.15 K, x1 = 0.8733	3.26 ± 0.037
298.15 K, x1 = 0.9221	3.361 ± 0.038
298.15 K, x1 = 0.9643	3.363 ± 0.037
313.15 K, x1 = 0.2695	1.138 ± 0.015
313.15 K, x1 = 0.4572	1.383 ± 0.017
313.15 K, x1 = 0.58	1.621 ± 0.02
313.15 K, x1 = 0.6792	1.846 ± 0.022
313.15 K, x1 = 0.7583	2.039 ± 0.024
313.15 K, x1 = 0.8242	2.193 ± 0.025
313.15 K, x1 = 0.8775	2.294 ± 0.025
313.15 K, x1 = 0.9226	2.338 ± 0.026
313.15 K, x1 = 0.9638	2.362 ± 0.025

CCCCCCCCCCC + CCCCCCCCC
298.15 K, 101.33 kPa
Settings	viscosity [mPa·s]
x2 = 0.1034	1.03 ± 0.013
x2 = 0.2088	0.9658 ± 0.012
x2 = 0.3024	0.931 ± 0.012
x2 = 0.4073	0.8929 ± 0.011
x2 = 0.5057	0.8476 ± 0.011
x2 = 0.6037	0.8141 ± 0.011
x2 = 0.7055	0.77 ± 0.01
x2 = 0.8002	0.7331 ± 0.0097
x2 = 0.9038	0.687 ± 0.0092

CCCCCCCCCCC + CCCCCCCCCCCCCCCC
298.15 K, 101.33 kPa
Settings	viscosity [mPa·s]
x1 = 0.1095	2.783 ± 0.034
x1 = 0.2008	2.549 ± 0.031
x1 = 0.3116	2.315 ± 0.028
x1 = 0.4052	2.108 ± 0.025
x1 = 0.5071	1.905 ± 0.023
x1 = 0.6081	1.723 ± 0.021
x1 = 0.7051	1.534 ± 0.018
x1 = 0.806	1.363 ± 0.017
x1 = 0.9031	1.209 ± 0.015

OCCCO + CCC(C)=O
Settings	viscosity [mPa·s]
318.15 K, 100 kPa, x1 = 0.7989	6.885 ± 0.075

NC=O + CCCCn1cc[n+](C)c1.F[B-](F)(F)F
101 kPa
Settings	viscosity [mPa·s]
293.15 K, x2 = 0.7588	71.35 ± 2.4
303.15 K, x2 = 0.5095	21.65 ± 0.68
